For one series, the system named is male CD1 mice. Put plainly: Predictive sedation-hypnosis test in mice (motor activity, crossings). Type of series: in vivo. The conditions noted are these: single equimolecular intraperitoneal dose, crossings over 30 min after dosing (first 5 min discarded) versus control. The protocol:
• In vivo determination of predictive sedative-hypnotic action.
The in vivo effects of these compounds were assessed by a predictive sedation-hypnosis test in mice (D. J. Sanger et al., Eur. J. Pharmacol., 313, 35-42, 1996; and G. Griebel et al., Psychopharmacology, 146, 205-213, 1999). Groups of 5-8 male CD1 mice, weighing 22-26 g at the time of test, were used. The test compounds were administered in single equimolecular intraperitoneal doses, suspended in 0.25% agar with one drop of Tween in a volume of 10 ml/kg. Control animals received the vehicle alone. Using an Actisystem DAS16 (Panlab, S. L., Spain) the crossings (number of counts) were recorded for each mouse at 5-min intervals during a period of 30 minutes after dosing. The inhibition percentage of crossings of treated animals versus control animals (the first 5 min were discarded) was calculated.

For a further series, the target named is α2-GABAA receptor (Rattus norvegicus, UniProt P18508+P23576). Briefly: Ligand-binding assay, radiolabeled flumazenil competition, rat spinal cord membranes. As to conditions: for inhibition at 10 µM: read-out: % Inhibition (10^−5 M), affinity for α2-GABAA receptor; for inhibition at 0.1 µM: read-out: % Inhibition (10^−7 M), affinity for α2-GABAA receptor. Here is the method: Determination of the affinity of test compounds for α1- and α2-GABAA receptor.
Male Sprague-Dawley rats weighing 200-250 g at the time of experiment were used. After decapitation of the animal, the cerebellum (tissue that mostly contains α1-GABAA receptor) and spinal cord (tissue that mostly contains α2-GABAA receptor) were removed. The membranes were prepared according to the method by J. Lameh et al. (Prog. Neuro-Psychopharmacol. Biol. Psychiatry, 24, 979-991, 2000). Once the tissues weighed, they were suspended in 50 mM Tris.HCl (pH 7.7), 1:40 (v/v), homogenized and then centrifuged at 20000 g for 10 min at 7° C. The resulting pellet was resuspended under the same conditions and centrifuged again. The pellet was finally resuspended on a minimum volume and kept at −80° C. overnight. On the next day, the process was repeated until the final pellet was resuspended at a ratio of 1:10 (v/v).
Affinity was determined by competitive tests using radiolabeled flumazenil as ligand. The tests were performed according to the methods described by S. Arbilla et al. (Eur. J. Pharmacol., 130, 257-263, 1986); and Y. Wu et al. (Eur. J. Pharmacol., 278, 125-132, 1995). The membranes containing the study receptors, flumazenil (radiolabeling at a final concentration of 1 nM) and ascending concentrations of test compounds (in a total volume of 500 μl in […] [ph 7.4] Tris.HCl buffer) were incubated. Simultaneously, the membranes were only incubated with the radiolabeled flumazenil (total binding, 100%) and in the presence of an elevated concentration of unradiolabeled flumazenil (non-specific binding, % estimation of radiolabeled ligand). The reactions started on adding the radiolabeled ligand followed by incubation for 60 minutes at 0° C. At the end of the incubation period, the tubes were filtered using a Brandel Mod. M-48R harvester and then washed three times with cold test buffer. The harvester was fitted with a GF/B filter that retained the membranes containing the receptors and the radiolabeled ligand which had been bound to the receptors. Then the filters were removed and left till dry. Once dried, the filters were cut, placed in vials with scintillation liquid and left under stirring overnight. The next day the filters were counted using a Packard Mod. Tricarb scintillation counter.
X: amount of bound ligand for every concentration of compound.
T: total binding, maximum amount bound to the radiolabeled ligand.
N: non-specific binding, amount of radiolabeled ligand bound in a non-specific way irrespective of the receptor used.
Every concentrations of compound were tested in duplicate and their mean values were used to determine the experimental values of % specific binding versus the concentration of compound. […] Inhibition constants (Ki) were calculated from the IC50 values according to Cheng-Prusoff's formula (Y. Cheng y W. H. Prusoff, Biochem. Pharmacol., 22(23), 3099-3108, 1973).

For `CN(c1cccc(-c2ccnc3c(C#N)cnn23)c1)S(C)(=O)=O` [Example 2, N-[3-(3-cyano-pyrazolo[1,5-a]pyrimidin-7-yl)-phenyl]-N-methyl-methanesulfonamide], the melting point (usually the temperature of the solid-liquid transition) lay in the range of 193 to 195 °C. Moreover, in the series with male CD1 mice, the “% Motor Activity Inhibition” value is 71.39%.

In turn, `CN(c1cccc(-c2ccnc3c(C(=O)c4cccs4)cnn23)c1)S(C)(=O)=O` [Example 3, N-methyl-N-{3-[3-(thiophene-2-carbonyl)-pyrazolo[1,5-a]pyrimidin-7-yl]-phenyl}-methanesulfonamide] came in with a melting point of 169 to 170 °C. Also, the “% Motor Activity Inhibition” value in the series on male CD1 mice was 93.58%.

In the case of `CN(c1cccc(-c2ccnc3c(C(=O)c4cccs4)cnn23)c1)S(=O)(=O)c1cccs1` [Example 87, N-methyl-N-{3-[3-(thiophene-2-carbonyl)-pyrazolo[1,5-a]pyrimidin-7-yl]-phenyl}-2-thiophene-sulfonamide], on α2-GABAA receptor, the inhibition (commonly how much of the control response was suppressed) at 10 µM stood at 97.6% and the inhibition at 0.1 µM turned out to be 65.1%. Also, the “% Motor Activity Inhibition” value with male CD1 mice is reported as 74.88%.

Turning to `Cc1nc(C)c(S(=O)(=O)N(C)c2cccc(-c3ccnc4c(C(=O)c5cccs5)cnn34)c2)s1` [Example 91], on α2-GABAA receptor, the inhibition at 10 µM worked out at 84.1% and the inhibition at 0.1 µM turned out to be 4.8%. In the series with male CD1 mice, the “% Motor Activity Inhibition” value is recorded as 72.85%.

For `CN(c1cccc(-c2ccnc3c(C(=O)c4cccs4)cnn23)c1)S(=O)(=O)C1CC1` [Example 92, N-methyl-N-{3-[3-(thiophene-2-carbonyl)-pyrazolo[1,5-a]pyrimidin-7-yl]-phenyl}-cyclopropyl-sulfonamide], on α2-GABAA receptor, the inhibition at 10 µM worked out at 95.7% and the inhibition at 0.1 µM was 36.5%. Moreover, in the series on male CD1 mice, the “% Motor Activity Inhibition” value is recorded as 74.36%.

As to `C=CS(=O)(=O)N(C)c1cccc(-c2ccnc3c(C(=O)c4cccs4)cnn23)c1` [Example 94, N-methyl-N-{3-[3-(thiophene-2-carbonyl)-pyrazolo[1,5-a]pyrimidin-7-yl]-phenyl}-vinylsulfonamide], at α2-GABAA receptor, the inhibition at 10 µM stood at 99.5% and the inhibition at 0.1 µM came out at 41.2%. Besides, in the series with male CD1 mice, the “% Motor Activity Inhibition” value is reported as 88.69%.

The values above are taken from US7947688B2, “N-[3-(3-substituted-pyrazolo[1,5-a]pyrimidin-7-yl)phenyl]-sulfonamides, and compositions, and methods related thereto” (Ferrer Internacional, S.A., priority 2003, dated 2011).
